In patent publication US8222219B2, “Glucopyranoside compound” (Mitsubishi Tanabe Pharma Corporation, priority 2003, dated 2012):
pIC50: −log10 of the molar value.

Tests used:
Sprague-Dawley (SD) rats = test: Urinary glucose excretion test in rats; type: in vivo, rat; details: male SD rats, 30 mg/kg oral gavage, urine collected for 24 hours; daily amount of glucose excreted per individual
Procedure: 2. Urinary Glucose Excretion Test in Rats Test Compounds:
Compounds described in the above examples were used for the urinary glucose excretion test in rats.
6-week-old male Sprague-Dawley (SD) rats were housed in individual metabolic cages with free access to food and water from 2 days prior to the experiment. On the morning of the experiment, rats were administered vehicle (0.2% carboxymethyl cellulose solution containing 0.2% Tween80) or test compounds (30 mg/kg) by oral gavage at a volume of 10 ml/kg. Then, urine of the rat was collected for 24 hours, and the urine volume was measured. Subsequently, the glucose concentration in urine was quantified using the enzymatic assay kit and the daily amount of glucose excreted in urine per individual was calculated.

human SGLT2 = target: T1, human SGLT2 (Homo sapiens, UniProt P31639); test: Assay for SGLT2 inhibition (14C-AMG uptake in CHOK1 cells expressing human SGLT2); type: cell-based; details: CHOK1 cells expressing human SGLT2; 14C-AMG uptake 0.5 mM, 2 hours at 37° C.; read-out: IC50
T1 construct: expressed in transfected cells; host or cells: CHOK1 (CHO-K1) cells, kept under Geneticin selection
T1 sequence (P31639 1-672): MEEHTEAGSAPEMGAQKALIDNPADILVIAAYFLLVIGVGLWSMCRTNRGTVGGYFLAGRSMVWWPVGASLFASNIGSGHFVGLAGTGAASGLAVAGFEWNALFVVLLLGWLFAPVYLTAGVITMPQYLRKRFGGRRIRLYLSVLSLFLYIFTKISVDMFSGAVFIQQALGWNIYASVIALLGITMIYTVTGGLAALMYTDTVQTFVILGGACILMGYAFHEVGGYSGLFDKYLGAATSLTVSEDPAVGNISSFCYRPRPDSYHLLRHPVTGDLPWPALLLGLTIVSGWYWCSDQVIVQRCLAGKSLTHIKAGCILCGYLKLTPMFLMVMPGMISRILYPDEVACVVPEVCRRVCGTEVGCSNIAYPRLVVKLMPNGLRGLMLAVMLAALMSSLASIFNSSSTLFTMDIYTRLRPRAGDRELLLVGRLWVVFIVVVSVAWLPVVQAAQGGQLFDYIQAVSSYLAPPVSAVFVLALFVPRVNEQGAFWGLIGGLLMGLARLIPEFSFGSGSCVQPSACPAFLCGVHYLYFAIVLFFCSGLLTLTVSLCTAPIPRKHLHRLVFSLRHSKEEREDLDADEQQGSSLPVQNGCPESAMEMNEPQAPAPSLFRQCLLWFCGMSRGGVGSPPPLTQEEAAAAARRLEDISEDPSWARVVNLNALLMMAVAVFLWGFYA
Procedure: 1. Assay for SGLT2 Inhibition
Compounds described in the above examples were used for the SGLT2 inhibition assay.
CHOK1 cells expressing human SGLT2 were seeded in 24-well plates at a density of 400,000 cells/well in F-12 nutrient mixture (Ham's F-12) containing 10% fetal bovine serum, 400 μg/ml Geneticin, 50 units/ml sodium penicillin G (Gibco-BRL) and 50 μg/ml streptomycin sulfate. […] Test compounds were dissolved in DMSO. The final concentration of DMSO was 0.5%. The transport reaction was initiated by addition of 50 μl [^14C]-methyl-α-D-glucopyranoside (^14C-AMG) solution (final concentration, 0.5 mM). After incubation for 2 hours at 37° C., the uptake was stopped by aspiration of the incubation mixture, the cells were washed three times with ice-cold PBS. Then, cells were solubilized with 0.3 N NaOH and aliquots were taken for determination of radioactivity by a liquid scintillation counter. Nonspecific AMG uptake was defined as that which occurred in the presence of 100 μM of phlorizin, a specific inhibitor of sodium-dependent glucose cotransporter. Specific uptake was normalized for the protein concentrations measured by the method of Bradford.

Row | SMILES | pIC50 (human SGLT2) | Urinary glucose (Sprague-Dawley (SD) rats)
1 | Cc1ccc([C@@H]2O[C@H](CO)[C@@H](O)[C@H](O)[C@H]2O)cc1Cc1ccc(-c2ccc(F)nc2)s1 [Example 120, 1-(β-D-glucopyranosyl)-3-(5-(6-fluoro-3-pyridyl)-2-thienylmethyl)-4-methylbenzene] | 8.47 | A (A≧2000 mg)
2 | CCc1cccc(-c2ccc(Cc3cc([C@@H]4O[C@H](CO)[C@@H](O)[C@H](O)[C@H]4O)ccc3C)s2)c1 [Example 140] | 8.23 | B (2000 mg>B≧1000 mg)
3 | COc1ccc(-c2ccc(Cc3cc([C@@H]4O[C@H](CO)[C@@H](O)[C@H](O)[C@H]4O)ccc3C)s2)cc1 [Example 144] | 8.39 | B (2000 mg>B≧1000 mg)
4 | Cc1ccc([C@@H]2O[C@H](CO)[C@@H](O)[C@H](O)[C@H]2O)cc1Cc1ccc(-c2cccc(F)n2)s1 [Example 146] | 8.66 | A (A≧2000 mg)
5 | Cc1ccc([C@@H]2O[C@H](CO)[C@@H](O)[C@H](O)[C@H]2O)cc1Cc1ccc(-c2ccc(F)s2)s1 [Example 148] | 8.55 | B (2000 mg>B≧1000 mg)
6 | Cc1ccc([C@@H]2O[C@H](CO)[C@@H](O)[C@H](O)[C@H]2O)cc1Cc1ccc(-c2ccc(C#N)cc2)s1 [Example 151] | 8.60 | B (2000 mg>B≧1000 mg)
7 | OC[C@H]1O[C@@H](c2ccc(Cl)c(Cc3ccc(-c4ccc(F)nc4)s3)c2)[C@H](O)[C@@H](O)[C@@H]1O [Example 168, 1-(β-D-glucopyranosyl)-4-chloro-3-(5-(6-fluoro-3-pyridyl)-2-thienylmethyl)benzene] | 8.64 | A (A≧2000 mg)
8 | OC[C@H]1O[C@@H](n2cc(Cc3cc4ccccc4s3)c3ccccc32)[C@H](O)[C@@H](O)[C@@H]1O [Example 195, 1-(β-D-glucopyranosyl)-3-(benzo[b]thiophen-2-ylmethyl)indole] | – | B (2000 mg>B≧1000 mg)
9 | Cc1ccc([C@@H]2O[C@H](CO)[C@@H](O)[C@H](O)[C@H]2O)cc1Cc1cc2ccc(OC(F)F)cc2s1 [Example 224] | 8.23 | –
10 | Cc1ccc([C@@H]2O[C@H](CO)[C@@H](O)[C@H](O)[C@H]2O)cc1Cc1ccc(-n2cccn2)s1 [Example 227] | 8.49 | –
11 | CCOc1ccc2cc(Cc3cc([C@@H]4O[C@H](CO)[C@@H](O)[C@H](O)[C@H]4O)ccc3C)sc2c1 [Example 228] | 8.44 | –
12 | COc1ccc2sc(Cc3cc([C@@H]4O[C@H](CO)[C@@H](O)[C@H](O)[C@H]4O)ccc3C)cc2c1 [Example 229] | 8.57 | –
13 | Cc1ccc([C@@H]2O[C@H](CO)[C@@H](O)[C@H](O)[C@H]2O)cc1Cc1cc2cc(OCCF)ccc2s1 [Example 230] | 8.40 | –
14 | CCOc1ccc2sc(Cc3cc([C@@H]4O[C@H](CO)[C@@H](O)[C@H](O)[C@H]4O)ccc3C)cc2c1 [Example 231] | 8.46 | –
15 | CCOc1ccc(-c2ccc(Cc3cc([C@@H]4O[C@H](CO)[C@@H](O)[C@H](O)[C@H]4O)ccc3C)s2)cc1 [Example 232] | 8.40 | –
16 | Cc1ccc([C@@H]2O[C@H](CO)[C@@H](O)[C@H](O)[C@H]2O)cc1Cc1cc2ccc(OCCF)cc2s1 [Example 235] | 8.59 | –
17 | Cc1ccc([C@@H]2O[C@H](CO)[C@@H](O)[C@H](O)[C@H]2O)cc1Cc1ccc(-c2ccc(OC(F)F)cc2)s1 [Example 237] | 8.55 | –
18 | Cc1cc(-c2ccc(Cc3cc([C@@H]4O[C@H](CO)[C@@H](O)[C@H](O)[C@H]4O)ccc3C)s2)on1 [Example 246] | 8.19 | –
19 | OC[C@H]1O[C@@H](c2ccc(F)c(Cc3ccc(-c4cccc(F)n4)s3)c2)[C@H](O)[C@@H](O)[C@@H]1O [Example 248] | 8.29 | –
20 | O=Cc1ccc(-c2ccc(Cc3cc([C@@H]4O[C@H](CO)[C@@H](O)[C@H](O)[C@H]4O)ccc3Cl)s2)cc1 [Example 249, 1-(β-D-Glucopyranosyl)-4-chloro-3-(5-(4-formylphenyl)-2-thienylmethyl)benzene] | 8.37 | –
21 | COc1c(Cc2ccc(Cl)s2)cc([C@@H]2O[C@H](CO)[C@@H](O)[C@H](O)[C@H]2O)c2ccccc12 [Example 250, 1-(β-D-Glucopyranosyl)-3-(5-chloro-2-thienylmethyl)-4-methoxynaphthalene] | 8.38 | –
22 | OC[C@H]1O[C@@H](c2cc(Cc3ccc(-c4cccc(F)n4)s3)c(F)c3ccccc23)[C@H](O)[C@@H](O)[C@@H]1O [Example 255] | 8.19 | –
23 | OC[C@H]1O[C@@H](c2ccc(Cl)c(Cc3ccc(-c4ncc(F)s4)s3)c2)[C@H](O)[C@@H](O)[C@@H]1O [Example 256] | 8.51 | –
24 | COc1c(Cc2ccc(-c3ccccc3)s2)cc([C@@H]2O[C@H](CO)[C@@H](O)[C@H](O)[C@H]2O)c2ccccc12 [Example 265, 1-(β-D-glucopyranosyl)-3-(5-phenyl-2-thienylmethyl)-4-methoxynaphthalene] | 8.47 | –
25 | COc1c(Cc2ccc(-c3ncccn3)s2)cc([C@@H]2O[C@H](CO)[C@@H](O)[C@H](O)[C@H]2O)c2ccccc12 [Example 266] | 8.49 | –
26 | COc1c(Cc2ccc(-c3cccc(F)n3)s2)cc([C@@H]2O[C@H](CO)[C@@H](O)[C@H](O)[C@H]2O)c2ccccc12 [Example 268] | 8.60 | –

Second part, led by results:

Row | pIC50 (human SGLT2) | SMILES | Urinary glucose (Sprague-Dawley (SD) rats)
27 | 8.85 | N#Cc1cccc(-c2ccc(Cc3cc([C@@H]4O[C@H](CO)[C@@H](O)[C@H](O)[C@H]4O)ccc3Cl)s2)c1 [Example 123, 1-(β-D-glucopyranosyl)-4-chloro-3-(5-(3-cyanophenyl)-2-thienylmethyl)benzene] | A (A≧2000 mg)
28 | 8.89 | Cc1ccc([C@@H]2O[C@H](CO)[C@@H](O)[C@H](O)[C@H]2O)cc1Cc1ccc(-c2cccc(C#N)c2)s1 [Example 127, 1-(β-D-glucopyranosyl)-3-(5-(3-cyanophenyl)-2-thienylmethyl)-4-methylbenzene] | A (A≧2000 mg)
29 | 8.96 | OC[C@H]1O[C@@H](c2ccc(Cl)c(Cc3ccc(-c4cccc(F)n4)s3)c2)[C@H](O)[C@@H](O)[C@@H]1O [Example 156] | A (A≧2000 mg)
30 | 8.82 | Cc1ccc([C@@H]2O[C@H](CO)[C@@H](O)[C@H](O)[C@H]2O)cc1Cc1ccc(-c2cccc(C#N)n2)s1 [Example 225] | –
31 | 8.80 | COc1ccc2cc(Cc3cc([C@@H]4O[C@H](CO)[C@@H](O)[C@H](O)[C@H]4O)ccc3C)sc2c1 [Example 238] | –
32 | 8.92 | OC[C@H]1O[C@@H](c2ccc(Cl)c(Cc3ccc(-c4ncco4)s3)c2)[C@H](O)[C@@H](O)[C@@H]1O [Example 240] | –
33 | 9.00 | Cc1ccc([C@@H]2O[C@H](CO)[C@@H](O)[C@H](O)[C@H]2O)cc1Cc1ccc(-c2ncco2)s1 [Example 241] | –
34 | 8.92 | Cc1csc(-c2ccc(Cc3cc([C@@H]4O[C@H](CO)[C@@H](O)[C@H](O)[C@H]4O)ccc3Cl)s2)n1 [Example 244] | –
35 | 8.85 | Cc1nc(-c2ccc(Cc3cc([C@@H]4O[C@H](CO)[C@@H](O)[C@H](O)[C@H]4O)ccc3Cl)s2)cs1 [Example 252] | –
36 | 8.80 | Cc1cc(-c2ccc(Cc3cc([C@@H]4O[C@H](CO)[C@@H](O)[C@H](O)[C@H]4O)ccc3Cl)s2)ccn1 [Example 253] | –
37 | 8.82 | OCc1ccc(-c2ccc(Cc3cc([C@@H]4O[C@H](CO)[C@@H](O)[C@H](O)[C@H]4O)ccc3Cl)s2)cc1 [Example 264, 1-(β-D-glucopyranosyl)-4-chloro-3-(5-(4-hydroxymethylphenyl)-2-thienylmethyl)benzene] | –
38 | 8.82 | COc1c(Cc2ccc(-c3cccc(C#N)c3)s2)cc([C@@H]2O[C@H](CO)[C@@H](O)[C@H](O)[C@H]2O)c2ccccc12 [Example 267] | –
